Data reported in the kinase profiling compilation of Christmann-Franck et al. (2016).

What was measured:
CDC2L2 (human) = CDC2L2 (human) (UniProt Q9UQ88); assay: KINOMEscan competition binding; conditions: compound 10.0 µM
CDK11A (human) = CDK11A (human) (UniProt Q9UQ88); assay: KINOMEscan competition binding; conditions: compound 10.0 µM
CDK11B (human) = CDK11B (human) (UniProt P21127); assay: KINOMEscan competition binding; conditions: compound 10.0 µM
CSNK2A1 (human) = CSNK2A1 (human) (UniProt P68400); assay: KINOMEscan competition binding; conditions: compound 10.0 µM
CSNK2A2 (human) = CSNK2A2 (human) (UniProt P19784); assay: KINOMEscan competition binding; conditions: compound 10.0 µM
DAPK1 (human) = DAPK1 (human) (UniProt P53355); assay: KINOMEscan competition binding; conditions: compound 10.0 µM
DDR1 (human) = DDR1 (human) (UniProt Q08345); assay: KINOMEscan competition binding; conditions: compound 10.0 µM
DDR2 (human) = DDR2 (human) (UniProt Q16832); assay: KINOMEscan competition binding; conditions: compound 10.0 µM
FLT1 (human) = FLT1 (human) (UniProt P17948); assay: KINOMEscan competition binding; conditions: compound 10.0 µM
FLT4 (human) = FLT4 (human) (UniProt P35916); assay: KINOMEscan competition binding; conditions: compound 10.0 µM
HIPK1 (human) = HIPK1 (human) (UniProt Q86Z02); assay: KINOMEscan competition binding; conditions: compound 10.0 µM
KDR (human) = KDR (human) (UniProt P35968); assay: KINOMEscan competition binding; conditions: compound 10.0 µM
KIT (human) = KIT (human) (UniProt P10721); assay: KINOMEscan competition binding; conditions: compound 10.0 µM
[1] = system: KIT (human), P10721 [V559D/T670I]; assay: KINOMEscan competition binding; conditions: compound 10.0 µM
[2] = system: KIT (human), P10721 [V559D]; assay: KINOMEscan competition binding; conditions: compound 10.0 µM
MAPK8 (human) = MAPK8 (human) (UniProt P45983); assay: KINOMEscan competition binding; conditions: compound 10.0 µM
MARK3 (human) = MARK3 (human) (UniProt P27448); assay: KINOMEscan competition binding; conditions: compound 10.0 µM
PDGFRA (human) = PDGFRA (human) (UniProt P16234); assay: KINOMEscan competition binding; conditions: compound 10.0 µM
PDGFRB (human) = PDGFRB (human) (UniProt P09619); assay: KINOMEscan competition binding; conditions: compound 10.0 µM
PHKG1 (human) = PHKG1 (human) (UniProt Q16816); assay: KINOMEscan competition binding; conditions: compound 10.0 µM
PIM1 (human) [3] = target: PIM1 (human) (UniProt P11309); assay: KINOMEscan competition binding; conditions: compound 10.0 µM
PIM2 (human) [4] = target: PIM2 (human) (UniProt Q9P1W9); assay: KINOMEscan competition binding; conditions: compound 10.0 µM
PIM3 (human) = PIM3 (human) (UniProt Q86V86); assay: KINOMEscan competition binding; conditions: compound 10.0 µM
PLK4 (human) = PLK4 (human) (UniProt O00444); assay: KINOMEscan competition binding; conditions: compound 10.0 µM
RET (human) = RET (human) (UniProt P07949); assay: KINOMEscan competition binding; conditions: compound 10.0 µM
[5] = system: RET (human), P07949 [M918T]; assay: KINOMEscan competition binding; conditions: compound 10.0 µM
RPS6KA1 KD2 (human) = RPS6KA1 KD2 (human) (UniProt Q15418); assay: KINOMEscan competition binding; conditions: compound 10.0 µM
RPS6KA2 KD2 (human) = RPS6KA2 KD2 (human) (UniProt Q15349); assay: KINOMEscan competition binding; conditions: compound 10.0 µM
RPS6KA6 KD2 (human) = RPS6KA6 KD2 (human) (UniProt Q9UK32); assay: KINOMEscan competition binding; conditions: compound 10.0 µM
SLK (human) = SLK (human) (UniProt Q9H2G2); assay: KINOMEscan competition binding; conditions: compound 10.0 µM
STK10 (human) = STK10 (human) (UniProt O94804); assay: KINOMEscan competition binding; conditions: compound 10.0 µM
STK17A (human) = STK17A (human) (UniProt Q9UEE5); assay: KINOMEscan competition binding; conditions: compound 10.0 µM
STK17B (human) = STK17B (human) (UniProt O94768); assay: KINOMEscan competition binding; conditions: compound 10.0 µM
STK24 (human) = STK24 (human) (UniProt Q9Y6E0); assay: KINOMEscan competition binding; conditions: compound 10.0 µM
TIE1 (human) = TIE1 (human) (UniProt P35590); assay: KINOMEscan competition binding; conditions: compound 10.0 µM
TLK1 (human) = TLK1 (human) (UniProt Q9UKI8); assay: KINOMEscan competition binding; conditions: compound 10.0 µM
PIM1 (human) [6] = target: PIM1 (human) (UniProt P11309); assay: SelectScreen, TR FRET
PIM2 (human) [7] = target: PIM2 (human) (UniProt Q9P1W9); assay: SelectScreen, TR FRET

Chain of PIM1 (human) (P11309 whole entry, looked up): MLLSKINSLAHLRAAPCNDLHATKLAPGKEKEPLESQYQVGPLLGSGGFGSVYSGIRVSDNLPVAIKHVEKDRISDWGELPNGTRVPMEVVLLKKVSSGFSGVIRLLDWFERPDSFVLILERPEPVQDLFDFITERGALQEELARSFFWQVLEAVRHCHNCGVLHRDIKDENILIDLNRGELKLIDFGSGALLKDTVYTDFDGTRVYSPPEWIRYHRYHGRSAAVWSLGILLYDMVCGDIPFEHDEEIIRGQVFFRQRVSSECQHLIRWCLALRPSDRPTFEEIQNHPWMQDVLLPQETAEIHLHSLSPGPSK
Chain of PIM2 (human) (Q9P1W9 whole entry, looked up): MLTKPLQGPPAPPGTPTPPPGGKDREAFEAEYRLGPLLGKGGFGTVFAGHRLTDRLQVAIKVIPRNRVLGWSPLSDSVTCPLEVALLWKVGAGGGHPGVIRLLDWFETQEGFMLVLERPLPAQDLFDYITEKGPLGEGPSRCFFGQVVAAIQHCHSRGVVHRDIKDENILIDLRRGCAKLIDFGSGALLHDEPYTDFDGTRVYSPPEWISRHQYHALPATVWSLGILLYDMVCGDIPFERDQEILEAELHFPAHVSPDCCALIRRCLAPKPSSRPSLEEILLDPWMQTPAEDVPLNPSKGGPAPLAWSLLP
Chain of CDK11B (human) (P21127 whole entry, looked up): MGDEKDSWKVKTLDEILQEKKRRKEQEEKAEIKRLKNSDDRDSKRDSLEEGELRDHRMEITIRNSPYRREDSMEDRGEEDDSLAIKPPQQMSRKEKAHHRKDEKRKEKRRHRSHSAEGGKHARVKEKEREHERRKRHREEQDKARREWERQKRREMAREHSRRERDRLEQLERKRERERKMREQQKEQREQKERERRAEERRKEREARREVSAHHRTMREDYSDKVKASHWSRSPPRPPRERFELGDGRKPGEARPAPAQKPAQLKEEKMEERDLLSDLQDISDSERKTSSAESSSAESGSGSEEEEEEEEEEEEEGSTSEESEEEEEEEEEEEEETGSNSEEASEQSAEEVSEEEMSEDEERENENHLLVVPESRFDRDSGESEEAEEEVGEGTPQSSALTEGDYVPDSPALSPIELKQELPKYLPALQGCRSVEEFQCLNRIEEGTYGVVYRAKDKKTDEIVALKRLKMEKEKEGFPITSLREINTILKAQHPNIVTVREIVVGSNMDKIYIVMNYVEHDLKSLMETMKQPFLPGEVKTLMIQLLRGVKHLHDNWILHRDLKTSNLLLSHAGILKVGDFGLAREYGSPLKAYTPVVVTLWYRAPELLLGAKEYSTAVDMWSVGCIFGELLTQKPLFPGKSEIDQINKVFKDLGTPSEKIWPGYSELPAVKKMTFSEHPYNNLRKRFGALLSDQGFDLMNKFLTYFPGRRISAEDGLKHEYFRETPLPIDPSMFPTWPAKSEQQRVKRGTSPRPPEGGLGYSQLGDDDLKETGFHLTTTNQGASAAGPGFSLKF
Chain of SLK (human) (Q9H2G2 whole entry, looked up): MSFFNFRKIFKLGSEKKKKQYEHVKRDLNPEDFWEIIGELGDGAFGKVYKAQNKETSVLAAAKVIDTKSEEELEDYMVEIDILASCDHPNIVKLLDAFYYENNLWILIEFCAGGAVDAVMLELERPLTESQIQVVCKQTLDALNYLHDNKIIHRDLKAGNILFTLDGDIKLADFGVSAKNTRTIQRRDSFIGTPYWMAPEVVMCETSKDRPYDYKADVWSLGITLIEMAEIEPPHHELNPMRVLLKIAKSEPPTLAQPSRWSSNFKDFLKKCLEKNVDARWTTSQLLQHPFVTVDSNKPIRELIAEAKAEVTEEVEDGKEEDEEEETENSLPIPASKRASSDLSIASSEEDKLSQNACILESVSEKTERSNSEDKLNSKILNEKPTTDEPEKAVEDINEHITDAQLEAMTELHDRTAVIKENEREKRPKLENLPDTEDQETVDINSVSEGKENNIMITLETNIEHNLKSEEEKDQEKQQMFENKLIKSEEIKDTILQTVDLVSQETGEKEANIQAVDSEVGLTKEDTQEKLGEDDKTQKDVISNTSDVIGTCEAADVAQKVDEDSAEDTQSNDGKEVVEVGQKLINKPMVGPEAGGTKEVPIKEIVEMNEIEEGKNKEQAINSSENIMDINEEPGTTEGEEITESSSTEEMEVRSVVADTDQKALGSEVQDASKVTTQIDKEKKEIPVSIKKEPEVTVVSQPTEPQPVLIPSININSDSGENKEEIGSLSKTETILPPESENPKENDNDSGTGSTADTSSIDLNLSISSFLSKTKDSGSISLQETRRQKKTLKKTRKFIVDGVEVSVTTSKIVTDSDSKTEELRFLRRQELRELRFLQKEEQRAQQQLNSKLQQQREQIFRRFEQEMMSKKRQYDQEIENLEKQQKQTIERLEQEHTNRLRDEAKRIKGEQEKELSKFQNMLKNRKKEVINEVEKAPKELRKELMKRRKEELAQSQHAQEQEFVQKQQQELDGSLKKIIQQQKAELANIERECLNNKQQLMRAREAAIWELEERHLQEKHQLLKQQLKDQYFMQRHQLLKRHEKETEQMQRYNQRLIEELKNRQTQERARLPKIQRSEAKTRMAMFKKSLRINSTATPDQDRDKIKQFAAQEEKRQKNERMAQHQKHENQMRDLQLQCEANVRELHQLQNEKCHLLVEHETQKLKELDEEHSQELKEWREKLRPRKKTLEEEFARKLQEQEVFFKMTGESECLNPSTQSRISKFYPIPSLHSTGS
Chain of KIT (human) (P10721 whole entry, looked up): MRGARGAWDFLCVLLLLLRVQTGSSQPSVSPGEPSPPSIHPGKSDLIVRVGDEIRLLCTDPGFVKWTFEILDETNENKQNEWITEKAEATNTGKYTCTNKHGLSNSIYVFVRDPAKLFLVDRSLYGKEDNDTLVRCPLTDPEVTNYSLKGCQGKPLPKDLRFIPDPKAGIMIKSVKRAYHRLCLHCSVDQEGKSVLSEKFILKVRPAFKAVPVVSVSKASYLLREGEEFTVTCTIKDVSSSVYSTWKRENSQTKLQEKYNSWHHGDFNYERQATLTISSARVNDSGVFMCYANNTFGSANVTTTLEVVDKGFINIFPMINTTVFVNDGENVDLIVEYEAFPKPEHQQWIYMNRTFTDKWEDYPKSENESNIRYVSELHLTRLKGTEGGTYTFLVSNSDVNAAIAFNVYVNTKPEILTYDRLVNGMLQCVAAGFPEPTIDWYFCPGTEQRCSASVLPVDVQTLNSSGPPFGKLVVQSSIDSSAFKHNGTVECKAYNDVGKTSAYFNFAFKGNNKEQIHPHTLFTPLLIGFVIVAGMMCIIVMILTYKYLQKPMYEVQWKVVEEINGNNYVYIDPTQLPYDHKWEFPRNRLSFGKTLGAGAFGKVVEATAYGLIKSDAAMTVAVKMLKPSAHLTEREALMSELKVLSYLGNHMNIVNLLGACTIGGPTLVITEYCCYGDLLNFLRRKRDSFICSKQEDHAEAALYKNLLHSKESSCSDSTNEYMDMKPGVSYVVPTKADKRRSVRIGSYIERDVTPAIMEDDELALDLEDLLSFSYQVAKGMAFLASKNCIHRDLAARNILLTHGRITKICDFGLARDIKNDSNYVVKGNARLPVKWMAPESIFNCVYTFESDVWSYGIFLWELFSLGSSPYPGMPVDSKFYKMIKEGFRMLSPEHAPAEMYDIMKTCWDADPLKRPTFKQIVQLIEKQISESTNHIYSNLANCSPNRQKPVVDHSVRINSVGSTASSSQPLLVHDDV
Chain of MARK3 (human) (P27448 whole entry, looked up): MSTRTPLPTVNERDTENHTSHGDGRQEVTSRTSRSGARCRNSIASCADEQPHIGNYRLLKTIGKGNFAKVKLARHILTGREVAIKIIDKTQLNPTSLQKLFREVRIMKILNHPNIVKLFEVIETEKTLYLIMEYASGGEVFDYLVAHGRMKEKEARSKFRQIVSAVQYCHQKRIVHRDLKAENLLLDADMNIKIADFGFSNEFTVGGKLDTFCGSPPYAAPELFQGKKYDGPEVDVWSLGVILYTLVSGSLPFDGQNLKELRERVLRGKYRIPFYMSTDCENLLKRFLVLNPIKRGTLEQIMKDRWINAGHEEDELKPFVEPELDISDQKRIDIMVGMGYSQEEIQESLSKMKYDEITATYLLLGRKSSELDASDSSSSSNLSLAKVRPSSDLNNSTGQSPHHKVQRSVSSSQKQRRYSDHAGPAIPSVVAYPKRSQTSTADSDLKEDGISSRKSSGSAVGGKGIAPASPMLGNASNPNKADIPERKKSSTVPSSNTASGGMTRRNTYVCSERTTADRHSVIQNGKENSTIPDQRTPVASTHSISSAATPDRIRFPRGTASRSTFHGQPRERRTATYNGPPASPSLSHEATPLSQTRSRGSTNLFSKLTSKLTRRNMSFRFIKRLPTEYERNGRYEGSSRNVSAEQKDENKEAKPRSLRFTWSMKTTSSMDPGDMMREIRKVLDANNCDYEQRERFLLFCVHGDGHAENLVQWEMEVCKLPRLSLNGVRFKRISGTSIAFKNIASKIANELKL
Chain of KIT (human), P10721 [V559D/T670I] (P10721 whole entry V559D/T670I, looked up): as the sequence (P10721 whole entry, looked up) above, with V559D, T670I counted along it
Chain of STK24 (human) (Q9Y6E0 whole entry, looked up): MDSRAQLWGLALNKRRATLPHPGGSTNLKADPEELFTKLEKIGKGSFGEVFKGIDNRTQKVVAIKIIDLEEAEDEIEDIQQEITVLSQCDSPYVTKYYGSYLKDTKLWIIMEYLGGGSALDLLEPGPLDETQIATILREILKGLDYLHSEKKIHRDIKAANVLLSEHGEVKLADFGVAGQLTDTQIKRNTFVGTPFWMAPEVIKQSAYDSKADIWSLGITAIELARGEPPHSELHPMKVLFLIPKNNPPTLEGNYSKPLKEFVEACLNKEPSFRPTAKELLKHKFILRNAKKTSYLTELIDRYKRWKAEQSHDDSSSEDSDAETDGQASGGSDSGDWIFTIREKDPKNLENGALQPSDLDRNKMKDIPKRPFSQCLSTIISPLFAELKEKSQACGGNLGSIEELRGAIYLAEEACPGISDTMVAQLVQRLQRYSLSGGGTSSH
Chain of KIT (human), P10721 [V559D] (P10721 whole entry V559D, looked up): as the sequence (P10721 whole entry, looked up) above, with V559D counted along it

CCN1CCN(Cc2cc(NC(=O)c3cccc4cc(-c5ccc(/C=C6\SC(=O)NC6=O)o5)ccc34)cc(C(F)(F)F)c2)CC1 showed a kinase still bound, per cent of control (CDC2L2 (human)) of 18%, a kinase still bound, per cent of control (CDK11A (human)) of 24% and a kinase still bound, per cent of control (CDK11B (human)) of 30%. The kinase still bound, per cent of control (CSNK2A1 (human)) was 4.6%, the kinase still bound, per cent of control (CSNK2A2 (human)) was 6.4% and the kinase still bound, per cent of control (DAPK1 (human)) was 34%. For the same compound, the kinase still bound, per cent of control (DDR1 (human)) was 0.15%, the kinase still bound, per cent of control (DDR2 (human)) was 7.6% and the kinase still bound, per cent of control (FLT1 (human)) was 12%. For the same compound, the kinase still bound, per cent of control (FLT4 (human)) was 5.9%, the kinase still bound, per cent of control (HIPK1 (human)) was 5.4% and the kinase still bound, per cent of control (KDR (human)) was 9%. The kinase still bound, per cent of control (KIT (human)) was 2.6%, the kinase still bound, per cent of control [1] was 2.4% and the kinase still bound, per cent of control [2] was 1.2%. The kinase still bound, per cent of control (MAPK8 (human)) was 32%, the kinase still bound, per cent of control (MARK3 (human)) was 32% and the kinase still bound, per cent of control (PDGFRA (human)) was 0.55%. For the same compound, the kinase still bound, per cent of control (PDGFRB (human)) was 0.25%, the kinase still bound, per cent of control (PHKG1 (human)) was 0% and the kinase still bound, per cent of control (PIM1 (human) [3]) was 11%. For the same compound, the kinase still bound, per cent of control (PIM2 (human) [4]) was 0.4%, the kinase still bound, per cent of control (PIM3 (human)) was 7% and the kinase still bound, per cent of control (PLK4 (human)) was 33%. It also gave a kinase still bound, per cent of control (RET (human)) of 4.6%, a kinase still bound, per cent of control [5] of 3.9% and a kinase still bound, per cent of control (RPS6KA1 KD2 (human)) of 18%. The kinase still bound, per cent of control (RPS6KA2 KD2 (human)) was 29%, the kinase still bound, per cent of control (RPS6KA6 KD2 (human)) was 20% and the kinase still bound, per cent of control (SLK (human)) was 30%. For the same compound, the kinase still bound, per cent of control (STK10 (human)) was 0.15%, the kinase still bound, per cent of control (STK17A (human)) was 15% and the kinase still bound, per cent of control (STK17B (human)) was 0.3%. The kinase still bound, per cent of control (STK24 (human)) was 25%, the kinase still bound, per cent of control (TIE1 (human)) was 5.8% and the kinase still bound, per cent of control (TLK1 (human)) was 13%. The IC50 (PIM1 (human) [6]) was 774 nM and the IC50 (PIM2 (human) [7]) was 814 nM.
